Measurements: patent US20140228214A1, “COMPOSITIONS COMPRISING A STREPTOMYCES-BASED BIOLOGICAL CONTROL AGENT AND A FUNGICIDE” (BAYER CROPSCIENCE LP, priority 2013, published 2014)
Read-outs that look alike come from different tables or passages of the source.

Tests used:
Phytophthora infestans = type: in vivo
Puccinia triticina = assay: Puccinia triticina-test (wheat)/preventive, evaluated 8 days after the inoculation; type: in vivo
[1] = tested on: Blumeria graminis fsp. hordei; assay: Blumeria test (barley)/preventive, evaluated 7 days after the inoculation; type: in vivo
Septoria tritici = assay: Septoria tritici-test (wheat)/preventive, evaluated 21 days after the inoculation; type: in vivo
Pyrenophora teres = assay: Pyrenophora teres-test (barley)/preventive, evaluated 8 days after the inoculation; type: in vivo
Venturia inaequalis = assay: Venturia test (apples)/preventive, evaluated 10 days after the inoculation
Method: After the spray coating has dried on, the plants are inoculated with an aqueous conidia suspension of the causal agent of apple scab (Venturia inaequalis) and then remain for 1 day in an incubation cabinet at approximately 20° C. and a relative atmospheric humidity of 100%. The plants are then placed in a greenhouse at approximately 21° C. and a relative atmospheric humidity of approximately 90%.
The test is evaluated 10 days after the inoculation.

Alternaria solani = assay: Alternaria test (tomatoes)/preventive, evaluated 3 days after the inoculation; type: in vivo
Sphaerotheca fuliginea = assay: Sphaerotheca test (cucumbers)/preventive, evaluated 7 days after the inoculation; type: in vivo
Botrytis cinerea = assay: Botrytis test (beans)/preventive, size of the lesions 2 days after the inoculation; details: Table 17
Method: After the spray coating has dried on, 2 small pieces of agar covered with growth of Botrytis cinerea are placed on each leaf. The inoculated plants are placed in a darkened chamber at 20° C. and a relative atmospheric humidity of 100%.
2 days after the inoculation, the size of the lesions on the leaves is evaluated.

## Cn1cc(C(=O)Nc2ccccc2-c2cc(F)c(F)c(F)c2)c(C(F)F)n1 [F72, fluxapyroxad]
Phytophthora infestans; Table 19, 100 ppm a.i.
  Efficacy in % found: 0%
Puccinia triticina; Table 22, 15.625 ppm a.i.
  Efficacy in % found: 22%
Puccinia triticina; Table 22, 31.25 ppm a.i.
  Efficacy in % found: 22%
[1]; Table 15, 31.25 ppm a.i.
  Efficacy in % found: 0%
Septoria tritici; Table 26, 31.25 ppm a.i.
  Efficacy in % found: 13%
Pyrenophora teres; Table 25, 15.625 ppm a.i.
  Efficacy in % found: 80%
Pyrenophora teres; Table 25, 31.25 ppm a.i.
  Efficacy in % found: 90%
Venturia inaequalis; Table 31, 0.25 ppm a.i.
  Efficacy in % found: 0%
Alternaria solani; Table 12, 0.5 ppm a.i.
  Efficacy in % found: 45%

## Cc1nn(C)c(F)c1C(=O)Nc1ccccc1C(C)CC(C)C (stereo not shown) [F84, penflufen]
Phytophthora infestans; Table 19, 100 ppm a.i.
  Efficacy in % found: 8%
Puccinia triticina; Table 22, 31.25 ppm a.i.
  Efficacy in % found: 67%
Pyrenophora teres; Table 25, 62.5 ppm a.i.
  Efficacy in % found: 70%
Pyrenophora teres; Table 25, 125 ppm a.i.
  Efficacy in % found: 60%
Venturia inaequalis; Table 31, 0.5 ppm a.i.
  Efficacy in % found: 0%
Sphaerotheca fuliginea; Table 29, 0.5 ppm a.i.
  Efficacy in % found: 0%

## CO/C=C(/C(=O)OC)c1ccccc1Oc1cc(Oc2ccccc2C#N)ncn1 [F107, azoxystrobin]
Puccinia triticina; Table 22, 7.8125 ppm a.i.
  Efficacy in % found: 67%
[1]; Table 15, 31.25 ppm a.i.
  Efficacy in % found: 10%
Septoria tritici; Table 26, 15.625 ppm a.i.
  Efficacy in % found: 13%
Septoria tritici; Table 26, 31.25 ppm a.i.
  Efficacy in % found: 50%
Pyrenophora teres; Table 25, 15.625 ppm a.i.
  Efficacy in % found: 60%
Pyrenophora teres; Table 25, 31.25 ppm a.i.
  Efficacy in % found: 90%
Venturia inaequalis; Table 32, 0.5 ppm a.i.
  Efficacy in % found: 84%
Alternaria solani; Table 13, 2 ppm a.i.
  Efficacy in % found: 41%
Sphaerotheca fuliginea; Table 28, 0.5 ppm a.i.
  Efficacy in % found: 37%

## O=C(NCc1ncc(C(F)(F)F)cc1Cl)c1c(Cl)cccc1Cl [F143, fluopicolide]
Phytophthora infestans; Table 20, 5 ppm a.i.
  Efficacy in % found: 21%
Venturia inaequalis; Table 32, 50 ppm a.i.
  Efficacy in % found: 0%

## N#Cc1ccccc1NC(=O)c1snc(Cl)c1Cl [F187, isotianil]
Botrytis cinerea; 125 ppm a.i.
  Efficacy in % found: 40%
Septoria tritici; Table 27, 250 ppm a.i.
  Efficacy in % found: 29%
Septoria tritici; Table 27, 500 ppm a.i.
  Efficacy in % found: 29%
Venturia inaequalis; Table 31, 50 ppm a.i.
  Efficacy in % found: 0%
Alternaria solani; Table 14, 50 ppm a.i.
  Efficacy in % found: 18%
Sphaerotheca fuliginea; Table 30, 100 ppm a.i.
  Efficacy in % found: 20%

## C#CCOc1ccc(CCNC(=O)C(OCC#C)c2ccc(Cl)cc2)cc1OC (stereo not shown) [F206, mandipropamid]
Phytophthora infestans; Table 20, 0.25 ppm a.i.
  Efficacy in % found: 47%
Sphaerotheca fuliginea; Table 28, 100 ppm a.i.
  Efficacy in % found: 13%

## COCC(=O)N(c1c(C)cccc1C)[C@H](C)C(=O)OC [F242, metalaxyl-M (mefenoxam)]
Venturia inaequalis; Table 32, 50 ppm a.i.
  Efficacy in % found: 0%
Sphaerotheca fuliginea; Table 28, 100 ppm a.i.
  Efficacy in % found: 13%

## chlorothalonil [F155]
Phytophthora infestans; Table 21, 20 ppm a.i.
  Efficacy in % found: 0%
Septoria tritici; Table 27, 125 ppm a.i.
  Efficacy in % found: 57%
Pyrenophora teres; Table 24, 250 ppm a.i.
  Efficacy in % found: 50%
Venturia inaequalis; Table 33, 10 ppm a.i.
  Efficacy in % found: 4%

## difenoconazole [F7]
Phytophthora infestans; Table 19, 100 ppm a.i.
  Efficacy in % found: 0%
Puccinia triticina; Table 23, 31.25 ppm a.i.
  Efficacy in % found: 30%
Puccinia triticina; Table 23, 62.5 ppm a.i.
  Efficacy in % found: 60%
[1]; Table 16, 62.5 ppm a.i.
  Efficacy in % found: 44%
[1]; Table 16, 125 ppm a.i.
  Efficacy in % found: 67%
Venturia inaequalis; Table 31, 1 ppm a.i.
  Efficacy in % found: 38%
Alternaria solani; Table 12, 2 ppm a.i.
  Efficacy in % found: 30%
Sphaerotheca fuliginea; Table 29, 1 ppm a.i.
  Efficacy in % found: 0%

## fenamidone [F114]
Phytophthora infestans; Table 20, 1 ppm a.i.
  Efficacy in % found: 41%
Venturia inaequalis; Table 32, 50 ppm a.i.
  Efficacy in % found: 0%
Alternaria solani; Table 13, 50 ppm a.i.
  Efficacy in % found: 62%
Sphaerotheca fuliginea; Table 28, 100 ppm a.i.
  Efficacy in % found: 21%

## fenhexamid [F16]
Phytophthora infestans; TABLE 17 (Phytophthora), 100 ppm a.i.
  Efficacy in % found: 0%
Venturia inaequalis; Table 31, 25 ppm a.i.
  Efficacy in % found: 0%
Alternaria solani; Table 14, 50 ppm a.i.
  Efficacy in % found: 50%
Sphaerotheca fuliginea; Table 30, 100 ppm a.i.
  Efficacy in % found: 0%

## fludioxonil [F248]
Botrytis cinerea; 2.5 ppm a.i.
  Efficacy in % found: 26%
Venturia inaequalis; Table 31, 50 ppm a.i.
  Efficacy in % found: 0%
Sphaerotheca fuliginea; Table 30, 100 ppm a.i.
  Efficacy in % found: 30%

## flutolanil [F71]
Botrytis cinerea; 250 ppm a.i.
  Efficacy in % found: 30%
Venturia inaequalis; Table 31, 50 ppm a.i.
  Efficacy in % found: 0%
Sphaerotheca fuliginea; Table 30, 100 ppm a.i.
  Efficacy in % found: 20%

## fosetyl-aluminium [F281]
Phytophthora infestans; Table 20, 50 ppm a.i.
  Efficacy in % found: 55%
Venturia inaequalis; Table 32, 50 ppm a.i.
  Efficacy in % found: 0%
Alternaria solani; Table 13, 50 ppm a.i.
  Efficacy in % found: 15%
Sphaerotheca fuliginea; Table 28, 100 ppm a.i.
  Efficacy in % found: 13%

## mancozeb [F174]
Phytophthora infestans; Table 21, 20 ppm a.i.
  Efficacy in % found: 0%
Venturia inaequalis; Table 33, 10 ppm a.i.
  Efficacy in % found: 0%
Sphaerotheca fuliginea; Table 29, 20 ppm a.i.
  Efficacy in % found: 0%

## phosphorous acid and its salts [F298]
Phytophthora infestans; Table 20, 500 ppm a.i.
  Efficacy in % found: 76%
Venturia inaequalis; Table 32, 50 ppm a.i.
  Efficacy in % found: 0%

## propamocarb hydrochloride [F220]
Phytophthora infestans; TABLE 17 (Phytophthora), 500 ppm a.i.
  Efficacy in % found: 7%
Venturia inaequalis; Table 31, 250 ppm a.i.
  Efficacy in % found: 0%
Alternaria solani; Table 14, 250 ppm a.i.
  Efficacy in % found: 12%
Sphaerotheca fuliginea; Table 30, 500 ppm a.i.
  Efficacy in % found: 10%

## propineb [F180]
Phytophthora infestans; Table 21, 20 ppm a.i.
  Efficacy in % found: 8%
Venturia inaequalis; Table 33, 10 ppm a.i.
  Efficacy in % found: 81%
Sphaerotheca fuliginea; Table 29, 20 ppm a.i.
  Efficacy in % found: 0%

## prothioconazole [F41]
Phytophthora infestans; Table 19, 100 ppm a.i.
  Efficacy in % found: 45%
Venturia inaequalis; Table 31, 1 ppm a.i.
  Efficacy in % found: 0%
Alternaria solani; Table 12, 2 ppm a.i.
  Efficacy in % found: 0%
Sphaerotheca fuliginea; Table 29, 1 ppm a.i.
  Efficacy in % found: 43%

## spiroxamine [F46]
Botrytis cinerea; 100 ppm a.i.
  Efficacy in % found: 14%
[1]; Table 16, 125 ppm a.i.
  Efficacy in % found: 11%
Venturia inaequalis; Table 31, 50 ppm a.i.
  Efficacy in % found: 0%
Alternaria solani; Table 14, 50 ppm a.i.
  Efficacy in % found: 46%
Sphaerotheca fuliginea; Table 30, 100 ppm a.i.
  Efficacy in % found: 30%

## tebuconazole [F47]
Phytophthora infestans; Table 19, 100 ppm a.i.
  Efficacy in % found: 15%
Puccinia triticina; Table 23, 31.25 ppm a.i.
  Efficacy in % found: 30%
Puccinia triticina; Table 23, 62.5 ppm a.i.
  Efficacy in % found: 60%
[1]; Table 16, 31.25 ppm a.i.
  Efficacy in % found: 78%
Septoria tritici; Table 27, 125 ppm a.i.
  Efficacy in % found: 57%
Venturia inaequalis; Table 31, 1 ppm a.i.
  Efficacy in % found: 0%
Alternaria solani; Table 12, 2 ppm a.i.
  Efficacy in % found: 35%
